Columns and labels:
[1] = system: HepG2 cells (a hepatocellular carcinoma cell line); experiment: Cancer cell proliferation, oligonucleotide in LIPOFECTAMINE, 48 hours, direct cell counting; format: cell-based, human; conditions: oligonucleotide 10, 20 or 30 μg/ml, P<0.05
Method: FIG. 5 is a graph showing the effect of sense and antisense ERV-9 U3 oligonucleotides (SEQ ID NOs: 1 and 2, respectively) on proliferation of HepG2 cells (a hepatocellular carcinoma cell line). Cells (4×10^4) were treated with ERV-9 U3 sense or antisense oligonucleotide formulated in LIPOFECTAMINE™ at the concentrations shown for 48 hours.
To test the effect of the sense and antisense ERV-9 U3 oligonucleotides on proliferation of cancer cells, six different cancer cell lines were selected for transfection studies: HT1080, fibrosarcoma cells (FIG. 1); MDA-231, breast cancer cells (FIG. 2); K562, myelogenous leukemia cells (FIG. 3); LNcaP, prostate cancer cells (FIG. 4); HepG2, hepatocellular carcinoma cells (FIG. 5); and MCF-7, breast cancer cells (FIG. 6). Cells (4×10^4) were treated with ERV-9 U3 sense or antisense oligonucleotide formulated in LIPOFECTAMINE™ at an oligonucleotide concentration of 10, 20 or 30 μg/ml for 48 hours. […] Antisense oligonucleotides specific for Bcl-2 (G3139; TCTCCCAGCGTGCGCCAT; SEQ ID NO: 4), telomerase (GRN163; TAGGGTTAGACAA; SEQ ID NO: 5), and MDM2 ([…]; SEQ ID NO: 6) were also evaluated. […] After 48 hours of oligonucleotide treatment, cell proliferation was assessed by direct cell counting. […]

[2] = system: HT1080, MDA-231, K562, LNcaP, HepG2 and MCF-7 cancer cell lines; experiment: Cancer cell proliferation, Example 1, summary over six cancer cell lines; format: cell-based, human; conditions: for proliferation relative to GFP control oligonucleotide: each of six cancer cell lines, 10, 20 or 30 μg/ml, 48 hours; for proliferation compared with Bcl-2, telomerase and MDM2-specific antisense oligonucleotides: six cancer cell lines, in most instances
Method: To test the effect of the sense and antisense ERV-9 U3 oligonucleotides on proliferation of cancer cells, six different cancer cell lines were selected for transfection studies: HT1080, fibrosarcoma cells (FIG. 1); MDA-231, breast cancer cells (FIG. 2); K562, myelogenous leukemia cells (FIG. 3); LNcaP, prostate cancer cells (FIG. 4); HepG2, hepatocellular carcinoma cells (FIG. 5); and MCF-7, breast cancer cells (FIG. 6). Cells (4×10^4) were treated with ERV-9 U3 sense or antisense oligonucleotide formulated in LIPOFECTAMINE™ at an oligonucleotide concentration of 10, 20 or 30 μg/ml for 48 hours. Green fluorescent protein (GFP) sense oligonucleotide ([…]; SEQ ID NO: 3) was used as a control to measure the non-specific cytotoxicity of phosphorothioate-based oligonucleotides. Antisense oligonucleotides specific for Bcl-2 (G3139; TCTCCCAGCGTGCGCCAT; SEQ ID NO: 4), telomerase (GRN163; TAGGGTTAGACAA; SEQ ID NO: 5), and MDM2 ([…]; SEQ ID NO: 6) were also evaluated. […] After 48 hours of oligonucleotide treatment, cell proliferation was assessed by direct cell counting. Cell proliferation levels were expressed relative to cells transfected with 10 μg/ml GFP control oligonucleotide.

MDA-231 tumor xenografts = experiment: Growth of human tumor xenografts in SCID mice; format: in vivo; conditions: MDA-231 xenograft; for tumor growth, combination treatment with VP16: 50 μg oligonucleotide and 50 ng VP16 once per day; for tumor burden compared to treatment with G3139: 50 μg oligonucleotide per mouse; for tumor growth (tumor size): 50 μg oligonucleotide per mouse injected around tumor once per day
Method: (§1) FIG. 18A is a pair of graphs showing the effect of sense and antisense ERV-9 U3 oligonucleotides (SEQ ID NOs: 1 and 2, respectively) on growth of MDA-231 (top) and HT1080 (bottom) tumor xenografts in SCID mice. Mice were injected with 50 μg of the indicated oligonucleotides once per day for 14 days (MDA-231) or 7 days (HT1080).
(§2) FIG. 18B is a pair of graphs showing the effect of sense and antisense ERV-9 U3 oligonucleotides (SEQ ID NOs: 1 and 2, respectively) on growth of MDA-231 (top) and HT1080 (bottom) tumor xenografts in SCID mice in combination with VP16. Mice were injected with 50 μg of the indicated oligonucleotides and 50 ng of VP16 once per day for 24 days (MDA-231) or 14 days (HT1080).
(§3) CB-17 prkdc(SCID) male, 4- to 6-week-old SCID mice were purchased from the Jackson Laboratory. Cultured cells (MDA-231 or HT1080 cells) were washed with and resuspended in serum-free media. The suspension (2×10^6 cells in 0.2 ml per mouse) was then injected into the chest area of the mice. The mice were monitored by measuring tumor growth and body weight and by general clinical observation. When tumor size reached approximately 4×4 mm, tumor-bearing mice were randomly divided into multiple treatment and control groups (five mice per group). All oligonucleotides, dissolved in PBS, were injected into the surrounding area of the tumor at doses of 50 μg per mouse (approximately 2.5 mg/kg), one time per day, 5 days/week until the tumor size of the control injected tumors reached about 20×20 mm (2×2 cm). The tumors were dissected from mice and weighed with the investigator blinded as to the treatment group. In combination therapy, 50 μg of the oligonucleotide (approximately 2.5 mg/kg) and 50 ng of VP16 (approximately 2.5 μg/kg), both dissolved in PBS, were injected together (one time per day, 5 days/week) into the surrounding area of the tumor to all groups.

HT1080 tumor xenografts = experiment: Growth of human tumor xenografts in SCID mice; format: in vivo; conditions: HT1080 xenograft; for tumor growth, combination treatment with VP16: 50 μg oligonucleotide and 50 ng VP16 once per day; for tumor burden compared to treatment with G3139: 50 μg oligonucleotide per mouse; for tumor growth (tumor size): 50 μg oligonucleotide per mouse injected around tumor once per day
Method: as §1, §2, §3

[3] = system: human primary keratinocytes; experiment: Proliferation of normal human primary cells, 48 hours; format: cell-based; conditions: 20 μg/ml, P>0.05
Method: (§4) FIG. 13 is a graph showing the effect of ERV-9 U3 sense and antisense oligonucleotides (SEQ ID NOs: 1 and 2, respectively) on human primary keratinocytes. Cells (4×10^4) were transfected with ERV-9 U3 sense or antisense oligonucleotide formulated in LIPOFECTAMINE™ at a concentration of 20 μg/ml for 48 hours. GFP oligonucleotide was used as non-specific phosphorothioate oligonucleotide control.
(§5) To determine whether the inhibitory effect of ERV-9 U3 oligonucleotides is specific to cancer cells, human primary keratinocytes (FIG. 13), lymphocytes (FIG. 14), or monocytes (FIG. 15) were treated with ERV-9 U3 sense or antisense oligonucleotide and cell proliferation was evaluated. Cells (4×10^4) were transfected with ERV-9 U3 sense or antisense oligonucleotide (SEQ ID NOs: 1 and 2, respectively) formulated in LIPOFECTAMINE™ at a concentration of 20 μg/ml. GFP oligonucleotide was used as non-specific phosphorothioate oligonucleotide control. After 48 hours, cell proliferation was assessed by direct cell counting. Cell proliferation levels were expressed relative to GFP control.

[4] = system: human primary lymphocytes; experiment: as above; format: cell-based; conditions: 20 μg/ml, P>0.05
Method: as §4, with “14” for “13”, “lymphocytes.” for “keratinocytes.”, “hours.” for “hours. GFP oligonucleotide was used as non-specific phosphorothioate oligonucleotide control.”
as §5

| Substance | cell proliferation relative to GFP oligonucleotide [1] | proliferation relative to GFP control oligonucleotide [2] | proliferation compared with Bcl-2, telomerase and MDM2-specific antisense oligonucleotides [2] | tumor cell proliferation, antisense relative to sense oligonucleotide ([2]; tumor cells) | tumor growth, combination treatment with VP16 (MDA-231 tumor xenografts) | tumor burden compared to treatment with G3139 (MDA-231 tumor xenografts) | tumor growth (tumor size) (MDA-231 tumor xenografts) | tumor growth, combination treatment with VP16 (HT1080 tumor xenografts) | tumor burden compared to treatment with G3139 (HT1080 tumor xenografts) | tumor growth (tumor size) (HT1080 tumor xenografts) | cell proliferation relative to control GFP oligonucleotide [3] | cell proliferation relative to control GFP oligonucleotide [4] |
| --- | --- | --- | --- | --- | --- | --- | --- | --- | --- | --- | --- | --- |
| U3AS: ERV-9 LTR U3 antisense oligonucleotide CTGATTGGTGTGTTTACAAACCTTGAG, phosphorothioate internucleoside linkages at each position (all phosphorothioate, sugars by position and methylation of C not given here) [Oligo U3AS] | inhibited cell proliferation better than GFP control and G3139, GRN163 and MDM2 antisense oligonucleotides at all three concentration levels | resulted in a significant decrease in proliferation of each cancer cell line tested, relative to GFP control oligonucleotide | inhibited proliferation to a greater extent than the Bcl-2, telomerase and MDM2-specific antisense oligonucleotides | more potently inhibited tumor cell proliferation (relative to the sense oligonucleotide) | inhibited tumor growth when co-administered with VP16 better than GFP oligonucleotide or G3139 antisense oligonucleotide | had reduced tumor burden for both MDA-231 and HT1080 tumors, although this did not reach statistical significance | inhibited tumor growth better than GFP oligonucleotide or G3139 antisense oligonucleotides | inhibited tumor growth when co-administered with VP16 better than GFP oligonucleotide or G3139 antisense oligonucleotide | had reduced tumor burden for both MDA-231 and HT1080 tumors, although this did not reach statistical significance | inhibited tumor growth better than GFP oligonucleotide or G3139 antisense oligonucleotides | did not inhibit cell proliferation relative to control GFP oligonucleotide | did not inhibit cell proliferation relative to control GFP oligonucleotide |
| U3S: ERV-9 LTR U3 sense oligonucleotide CTCAAGGTTTGTAAACACACCAATCAG, phosphorothioate internucleoside linkages at each position (all phosphorothioate, sugars by position and methylation of C not given here) [Oligo U3S] | inhibited cell proliferation better than GFP control and G3139, GRN163 and MDM2 antisense oligonucleotides at all three concentration levels | resulted in a significant decrease in proliferation of each cancer cell line tested, relative to GFP control oligonucleotide | inhibited proliferation to a greater extent than the Bcl-2, telomerase and MDM2-specific antisense oligonucleotides | – | inhibited tumor growth when co-administered with VP16 better than GFP oligonucleotide or G3139 antisense oligonucleotide | had reduced tumor burden for both MDA-231 and HT1080 tumors, although this did not reach statistical significance | inhibited tumor growth better than GFP oligonucleotide or G3139 antisense oligonucleotides | inhibited tumor growth when co-administered with VP16 better than GFP oligonucleotide or G3139 antisense oligonucleotide | had reduced tumor burden for both MDA-231 and HT1080 tumors, although this did not reach statistical significance | inhibited tumor growth better than GFP oligonucleotide or G3139 antisense oligonucleotides | did not inhibit cell proliferation relative to control GFP oligonucleotide | did not inhibit cell proliferation relative to control GFP oligonucleotide |

Source: US8680065B2, “Oligonucleotides of human endogenous retrovirus 9 (ERV-9) long terminal repeat (LTR) and methods of use” (The United States of America, as represented by the …, priority 2008, dated 2014)
